From US11008332B2, “Pharmaceutical composition for preventing or treating aging-related diseases containing decursin derivative as active ingredient” (PRG S&TECH INC., priority 2017, dated 2021)
“Also recorded” adds a separate entry of the source.

Experiments:
[1] = Chemical pharmacokinetic (PK) analysis, blood/plasma concentration by LC-MS/MS; assay type: in vivo; details: FIG. 2A
Procedure: For PK analysis, 5 mg/kg of JH4 in 10% DMSO, 5% Tween […] solution was intravenously injected and 10 mg/kg of JH4 in 10% NMP and 90% PEG400 solution was per orally delivered. At the setting time-points, blood concentration of JH4 was determined by LC-MS/MS analysis and the PK analysis for other chemicals was also tested by the similar protocol.

Plasma protein = Plasma protein binding, rat; assay type: in vitro ADME
Procedure: (§1) In vitro ADME studies (plasma protein binding, CYP inhibition, microsomal stability, plasma stability and hERG inhibition) were performed by New drug development center though standard protocols.

Plasma stability, rat = assay type: in vitro ADME
[2] = Liver microsomal stability, human; assay type: in vitro ADME
Procedure: as §1

[3] = Liver microsomal stability, mouse; assay type: in vitro ADME
CYP1A2 = biological target: T1, CYP1A2 (Homo sapiens, UniProt P05177); assay: CYP inhibition CYP1A2; assay type: in vitro ADME
T1 sequence (P05177 1-516): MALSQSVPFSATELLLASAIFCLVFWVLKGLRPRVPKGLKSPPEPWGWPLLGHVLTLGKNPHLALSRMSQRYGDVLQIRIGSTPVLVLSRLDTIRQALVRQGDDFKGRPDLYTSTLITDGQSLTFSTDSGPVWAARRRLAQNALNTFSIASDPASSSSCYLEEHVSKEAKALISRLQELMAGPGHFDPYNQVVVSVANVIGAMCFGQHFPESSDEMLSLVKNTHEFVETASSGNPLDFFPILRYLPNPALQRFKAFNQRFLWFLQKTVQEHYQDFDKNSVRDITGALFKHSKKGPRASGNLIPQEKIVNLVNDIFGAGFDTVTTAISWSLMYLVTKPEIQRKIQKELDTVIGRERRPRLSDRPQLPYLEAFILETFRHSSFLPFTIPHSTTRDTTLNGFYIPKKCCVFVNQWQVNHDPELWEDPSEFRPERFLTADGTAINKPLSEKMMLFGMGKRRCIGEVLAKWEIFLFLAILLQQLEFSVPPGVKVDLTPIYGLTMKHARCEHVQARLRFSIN
Procedure: as §1

CYP2C9 = CYP2C9 (Homo sapiens, UniProt P11712); assay: CYP inhibition CYP2C9; assay type: in vitro ADME
CYP2C9, sequence (P11712 whole entry): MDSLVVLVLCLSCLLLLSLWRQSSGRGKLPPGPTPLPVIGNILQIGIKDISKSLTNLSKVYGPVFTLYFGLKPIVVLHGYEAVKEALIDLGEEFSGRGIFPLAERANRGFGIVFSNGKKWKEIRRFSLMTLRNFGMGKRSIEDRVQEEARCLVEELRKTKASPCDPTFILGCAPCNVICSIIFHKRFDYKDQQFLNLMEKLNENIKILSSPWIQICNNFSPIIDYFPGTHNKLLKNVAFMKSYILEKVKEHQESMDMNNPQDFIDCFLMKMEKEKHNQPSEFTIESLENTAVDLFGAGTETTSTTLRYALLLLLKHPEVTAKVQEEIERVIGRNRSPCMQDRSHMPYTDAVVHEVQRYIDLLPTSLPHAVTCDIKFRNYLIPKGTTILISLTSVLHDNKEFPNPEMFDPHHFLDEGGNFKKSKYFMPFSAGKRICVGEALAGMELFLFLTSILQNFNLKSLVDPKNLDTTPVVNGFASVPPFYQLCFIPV
Procedure: as §1

CYP2D6 = CYP2D6 (Homo sapiens, UniProt P10635); assay: CYP inhibition CYP2D6; assay type: in vitro ADME
CYP2D6, sequence (P10635 whole entry): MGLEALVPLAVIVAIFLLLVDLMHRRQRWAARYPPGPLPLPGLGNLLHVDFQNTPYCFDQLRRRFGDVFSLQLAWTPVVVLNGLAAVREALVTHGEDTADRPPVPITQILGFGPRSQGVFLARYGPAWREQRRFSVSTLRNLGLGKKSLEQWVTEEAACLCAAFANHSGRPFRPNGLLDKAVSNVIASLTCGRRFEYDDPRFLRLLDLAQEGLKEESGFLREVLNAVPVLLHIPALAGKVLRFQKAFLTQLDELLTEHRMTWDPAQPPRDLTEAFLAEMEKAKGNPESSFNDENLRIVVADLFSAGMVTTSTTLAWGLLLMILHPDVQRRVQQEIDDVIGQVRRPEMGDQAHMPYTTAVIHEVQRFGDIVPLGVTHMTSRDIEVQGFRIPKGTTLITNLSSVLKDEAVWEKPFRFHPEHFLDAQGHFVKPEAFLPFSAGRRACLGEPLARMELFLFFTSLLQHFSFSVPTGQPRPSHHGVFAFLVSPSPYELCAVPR
Procedure: as §1

[4] = test system: progerin expression in progerin-transfected 293 cells; assay: Progerin expression analysis in progerin-transfected 293 cells (Western blot); assay type: cell-based; details: 24 hours, FIG. 1D
Procedure: HEK293 cell line, obtained from ATCC, were maintained in liquid medium (DMEM) containing 10% FBS and 1% antibiotics at 37° C.
Whole-cell lysates were prepared in RIPA.
15 μg of cell extracts were separated by SDS-PAGE and transferred onto a PVDF membrane.
The membrane was incubated for 1 h to overnight at 4° C. with primary antibody, followed by reaction with a secondary antibody at room temperature for 1 h.
Peroxidase activity was detected by chemiluminescence with ECL kit (Intron, Seoul, Korea) as recommended by its manufacturer.

HGPS cells = assay: Immunofluorescence staining of HGPS cells (nuclear morphology, progerin, H3K9me3); assay type: cell-based, Human
Procedure: Human fibroblast cells from HGPS patients (AG03198, person; AG03199; person), WS patients (AG06300, person; AG03141, person; AG00780, person) and controls (GM 00038, person) were obtained from the Coriell Cell Repositories (Camden, N.J., USA) and were maintained in EMEM, containing 15% FBS, 2 mM glutamine or HEMEM with 26 mM HEPES without antibiotics.
Cells were seeded on a cover glass and transfected with the indicated vectors.
After fixing with 100% methanol or 1% paraformaldehyde (PFA) for 1 h at 4° C., cells were incubated with blocking buffer (PBS+anti-human-Ab; 1:400) for 1 h.
After washing with PBS twice, cells were incubated with anti-Lamin A/C, Progerin or H3K9Me3 in blocking buffer (1:200) overnight and sequentially with anti-goat Ab-FITC or anti-rabbit Ab-rhodamin in blocking buffer (1:500) for 7 h and mounted, and nucleus was stained with DAPI. Thereafter Immunofluorescence signal was detected by fluorescence microscopy (Zeiss and Logos).
For counting nuclear deformed cell, obtained immunofluorescence images were used. Nuclear membrane showing abnormalities, dependent on Lamin A staining, were counted from randomly selected field. Counted cells were calculated percentage.

[5] = test system: Lmna^G609G/G609G, progeria model mouse; assay: Life span, body weight and morphology of Lmna^G609G/G609G progeria model mice; assay type: in vivo
Procedure: The experiments were performed in the Association for Assessment and Accreditation of Laboratory Animal Care certified facility, in compliance with animal policies approved by Pusan National University.
Lmna^G609G/609G mice were generated as timed mating of heterozygous Lmna^+/G609G provided by Carlos López-Otin (Universidad de Oviedo, Asturias, Oviedo, Spain).
SLC-D011, mixed with DMOS and PBS, were intraperitoneally injected in mice (20 mg/kg twice per week from 5-week-old). In addition, SLC-D011 dissolved at a concentration of 10 mg/ml in monoolein-based solution was orally administrated to mice in 5 times a week and control mice were treated in the same conditions by administering monoolein-based solution alone.
Lmna^G609G/609G mice were treated with clear chemical solution throughout life span, starting from 5 weeks of age. Lmna^+/G609G were treated via intraperitoneal, starting from 32 weeks of age.

[6] = test system: collagen 1A expression in HaCaT cells; assay: Collagen 1A expression in HaCaT cells (Western blot); assay type: cell-based, human; details: 2 or 5 μM, 24 hours, FIG. 5A
Procedure: Human keratinocyte HaCaT cells and normal fibroblast 9N (GM 00038, person) and N46 (AG13299, person) were treated with 2 or 5 μM SLC-D011 and incubated for 24 hours and then the amount of collagen 1A expression was confirmed in HaCaT cells and fibroblasts was confirmed.

Water solubility = assay type: physicochemical
[7] = Stability in monoolein-based solution on heating and sonication (LC-MS); assay type: physicochemical; details: heating at 80° C. and sonication, FIG. 3B
[8] = Lmna^G609G/G609G mice, 20 mg/kg i.p injection twice per week from 5 week age, FIG. 2C
[9] = Lmna^G609G/G609G mice, oral gavage 50 mg/kg daily in monoolein solution from 5 weeks old, FIG. 3C

Question: What does the source list for `CC1(C)Oc2cc3oc(=O)ccc3cc2C[C@@H]1OC/C=C/c1ccccc1` [SLC-D011, (7S)-(+)-8,8-dimethyl-7-(3-phenyl-allyloxy)-7,8-dihydro-6H-pyrano[3,2-g]chromen-2-one]?
Answer: bioavailability ([1]; blood, oral, PK analysis, read-out: bioavailability (B.A.)): 66%; PK profile ([1]; in vivo PK analysis): proper PK profile; Plasma protein binding Rat (% Bound) (Plasma protein): 99.8 % Bound; Plasma stability (% remaining) Rat 30 min (Plasma stability, rat; 30 min): 83.6 % remaining; Plasma stability (% remaining) Rat 120 min (Plasma stability, rat; 120 min): 75.1 % remaining; Liver microsomal stability (% remaining during 30 min) Human (%) [2]: 21.5%; Liver microsomal stability (% remaining during 30 min) Mouse (%) [3]: 59.7%; CYP inhibition CYP1A2 (CYP1A2): 81.6; CYP inhibition CYP2C9 (CYP2C9): 78.4; CYP inhibition CYP2D6 (CYP2D6): 91.7; progerin expression [4]: inhibiting progerin expression; also recorded: obviously suppresses progerin expression; nuclear abnormality of HGPS cells (HGPS cells; HGPS cells incubated 48 hr, FIG. 1E): improved nuclear abnormality of HGPS cells; progerin expression in HGPS cells (HGPS cells; HGPS cells incubated 48 hr, progerin staining, FIG. 1E): reduces progerin expression; H3K9me3 expression in HGPS cells (HGPS cells; immunostaining, FIG. 1F): induced H3K9me3 expression; life-span extended to ([5]; Lamn^G609G/G609G mice, i.p injection): 20 weeks; body size and gross morphology ([5]; Lamn^G609G/G609G mice, i.p injection, FIG. 2D): body size increase and gross morphology were also improved; lifespan extension ([5]; Lamn^G609G/G609G mice, oral administration in olein-based solution): 4.5 weeks; average (ave) life span [5, 8]: 19.5 weeks; maximum (max) life span [5, 8]: 21 weeks; body weight increase compared to vehicle group ([5]; Lmna^G609G/G609G mice, oral administration, FIG. 3D): about 35%; body size at 8 weeks old ([5]; Lmna^G609G/G609G mice, oral administration, FIG. 3E): apparently larger than that of vehicle-mouse; average life span [5, 9]: 19.3 weeks; maximum life span [5, 9]: 19.5 weeks; collagen expression in keratinocytes [6]: increasing collagen expression; water solubility (Water solubility): very low water solubility; stability in solution on heating and ultrasonic treatment [7]: stable without being decomposed even by heating and ultrasonic treatment
